Measurements reported in ChEMBL document CHEMBL5728503, “Second generation GRP94-selective inhibitors” (2021).

Biological target: Endoplasmin (Canis lupus familiaris, UniProt P41148)
Experiment: Fluorescence Polarization Assay: The assay was performed in 96-well black, flat-bottom plates with a final volume of 100 μL. 25 μL of assay buffer (20 mM HEPES, pH 7.3, 50 mM KCl, 5 mM MgCl2, 20 mM Na2MoO4, 2 mM DTT, 0.1 mg/mL BGG, and 0.01% NP-40) were added, followed by 25 μL of assay buffer containing 6 nM FITC-GDA (fluorescent tracer, stock in DMSO, diluted in assay buffer) and 50 μL of assay buffer containing 10 nM of either Grp94 or Hsp90α were added to each well. For each plate, wells containing buffer only (background), tracer in buffer only (low polarization control) and protein, tracer, and 1% DMSO (final concentration, high polarization control) were included. Compounds were then added with a final concentration of DMSO=1%. Plates were incubated at 4° C. with rocking for 24 h. […] Polarization values were correlated to % tracer bound and compound concentrations.

Chain of Endoplasmin (P41148 whole entry): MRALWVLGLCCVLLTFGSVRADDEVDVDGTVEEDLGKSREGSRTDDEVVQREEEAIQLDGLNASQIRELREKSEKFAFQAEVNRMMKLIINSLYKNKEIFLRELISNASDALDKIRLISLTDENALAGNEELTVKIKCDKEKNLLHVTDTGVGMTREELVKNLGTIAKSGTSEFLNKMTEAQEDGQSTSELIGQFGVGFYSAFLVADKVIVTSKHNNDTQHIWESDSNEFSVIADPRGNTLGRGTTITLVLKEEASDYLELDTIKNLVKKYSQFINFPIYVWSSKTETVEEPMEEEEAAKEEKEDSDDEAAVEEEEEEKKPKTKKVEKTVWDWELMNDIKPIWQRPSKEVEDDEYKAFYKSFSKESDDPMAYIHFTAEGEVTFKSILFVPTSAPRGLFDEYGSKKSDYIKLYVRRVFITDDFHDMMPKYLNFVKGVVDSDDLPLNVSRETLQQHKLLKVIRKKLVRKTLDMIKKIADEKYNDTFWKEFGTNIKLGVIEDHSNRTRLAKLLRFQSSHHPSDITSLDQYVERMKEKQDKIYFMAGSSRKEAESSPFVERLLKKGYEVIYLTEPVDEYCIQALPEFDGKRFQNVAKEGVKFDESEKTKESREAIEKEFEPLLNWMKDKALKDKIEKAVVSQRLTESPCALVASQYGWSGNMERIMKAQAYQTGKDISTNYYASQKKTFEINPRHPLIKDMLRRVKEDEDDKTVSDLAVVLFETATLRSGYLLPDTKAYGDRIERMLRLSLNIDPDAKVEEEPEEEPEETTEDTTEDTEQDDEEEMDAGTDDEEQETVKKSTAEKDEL

Kd | Compound
0.68 µM | COC(=O)c1c(O)cc(O)c(Cl)c1CCc1ccc(OC)cc1Cc1ccccc1
6.1 µM | CCOc1ccccc1Cc1ccccc1CCc1c(Cl)c(O)cc(O)c1C(=O)OC
0.28 µM | COC(=O)c1c(O)cc(O)c(Cl)c1CCc1cc(N)ccc1Cc1ccccc1
5.5 µM | COC(=O)c1c(O)cc(O)c(Cl)c1CCc1ccccc1Cc1ccccc1Cl
11.9 µM | COC(=O)c1c(O)cc(O)c(Cl)c1CCc1ccccc1Cc1cccc(Cl)c1
0.54 µM | COC(=O)c1c(O)cc(O)c(Cl)c1CCc1cccc(O)c1Cc1ccccc1
4.2 µM | COC(=O)c1c(O)cc(O)c(Cl)c1CCc1ccccc1Cc1ccc(Cl)cc1
0.73 µM | COC(=O)c1c(O)cc(O)c(Cl)c1CCc1cccc(OC)c1Cc1ccccc1
7.8 µM | COC(=O)c1c(O)cc(O)c(Cl)c1CCc1ccccc1Cc1ccccc1OC
0.33 µM | COC(=O)c1c(O)cc(O)c(Cl)c1CCc1ccc(O)cc1Cc1ccccc1
0.24 µM | COC(=O)c1c(O)cc(O)c(Cl)c1CCc1ccc(N)cc1Cc1ccccc1
10.4 µM | COC(=O)c1c(O)cc(O)c(Cl)c1CCc1cccc(Cc2ccccc2)c1
0.45 µM | COC(=O)c1c(O)cc(O)c(Cl)c1CCc1cc(OC)ccc1Cc1ccccc1
